Test results published in ChEMBL document CHEMBL1909046, “DrugMatrix in vitro pharmacology data”.

test system: not listed separately; assay: DRUGMATRIX: GABAA, Muscimol, Central radioligand binding (ligand: [3H] Muscimol); type: cell membranes, Rattus norvegicus, Wistar, Brain, Membrane; conditions: Not Active = under 50% inhibition at 10 µM

Compound | IC50 | Ki
C[C@](N)(Cc1ccc(O)cc1)C(=O)O [METYROSINE] | Not Active | Not Active
CCC[C@@H]1C[C@@H](C(=O)N[C@@H]([C@H]2O[C@H](SC)[C@H](O)[C@@H](O)[C@H]2O)[C@@H](C)O)N(C)C1 [LINCOMYCIN] | Not Active | Not Active

biological target: T1, Endothelin-1 receptor (Homo sapiens, UniProt P25101); type: cell membranes, Membrane; conditions: cho-k1; note: in other assays of this panel Not Active means under 50% inhibition at 10 µM
T1 sequence (P25101 whole entry): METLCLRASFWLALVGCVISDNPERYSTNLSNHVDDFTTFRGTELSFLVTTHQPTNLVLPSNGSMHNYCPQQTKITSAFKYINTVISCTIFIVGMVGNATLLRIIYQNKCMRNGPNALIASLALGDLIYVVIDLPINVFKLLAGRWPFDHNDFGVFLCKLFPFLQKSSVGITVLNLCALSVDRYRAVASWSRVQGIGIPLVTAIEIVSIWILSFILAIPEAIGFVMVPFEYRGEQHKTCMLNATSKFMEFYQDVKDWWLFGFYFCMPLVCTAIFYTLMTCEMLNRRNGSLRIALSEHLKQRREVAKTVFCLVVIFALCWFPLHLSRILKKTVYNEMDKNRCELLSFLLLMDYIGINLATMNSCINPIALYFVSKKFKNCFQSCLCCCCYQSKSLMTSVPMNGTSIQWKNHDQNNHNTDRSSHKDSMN

Compound | IC50
C[C@](N)(Cc1ccc(O)cc1)C(=O)O [METYROSINE] | Not Active
CCC[C@@H]1C[C@@H](C(=O)N[C@@H]([C@H]2O[C@H](SC)[C@H](O)[C@@H](O)[C@H]2O)[C@@H](C)O)N(C)C1 [LINCOMYCIN] | Not Active

biological target: Melanocortin receptor 4 (Homo sapiens, UniProt P32245); type: cell membranes, Membrane; conditions: hek293; note: in other assays of this panel Not Active means under 50% inhibition at 10 µM
Sequence (P32245 whole entry): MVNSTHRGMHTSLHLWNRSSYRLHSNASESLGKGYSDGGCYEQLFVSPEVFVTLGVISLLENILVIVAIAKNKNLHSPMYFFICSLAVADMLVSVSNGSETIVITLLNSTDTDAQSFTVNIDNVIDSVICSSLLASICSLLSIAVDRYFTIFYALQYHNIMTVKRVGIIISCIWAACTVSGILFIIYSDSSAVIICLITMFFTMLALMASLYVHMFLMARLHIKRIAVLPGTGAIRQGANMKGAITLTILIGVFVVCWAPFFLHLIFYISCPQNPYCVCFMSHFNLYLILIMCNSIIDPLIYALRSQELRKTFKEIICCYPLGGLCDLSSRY

Compound | IC50
C[C@](N)(Cc1ccc(O)cc1)C(=O)O [METYROSINE] | Not Active
CCC[C@@H]1C[C@@H](C(=O)N[C@@H]([C@H]2O[C@H](SC)[C@H](O)[C@@H](O)[C@H]2O)[C@@H](C)O)N(C)C1 [LINCOMYCIN] | Not Active

test system: not listed separately; assay: DRUGMATRIX: Serotonin (5-Hydroxytryptamine) 5-HT3 radioligand binding (ligand: [3H] GR-65630); type: cell membranes, Membrane; conditions: hek293; Not Active = under 50% inhibition at 10 µM

Compound | IC50 | Ki
C[C@](N)(Cc1ccc(O)cc1)C(=O)O [METYROSINE] | Not Active | Not Active
CCC[C@@H]1C[C@@H](C(=O)N[C@@H]([C@H]2O[C@H](SC)[C@H](O)[C@@H](O)[C@H]2O)[C@@H](C)O)N(C)C1 [LINCOMYCIN] | Not Active | Not Active

biological target: T2, Alpha-1B adrenergic receptor (Rattus norvegicus, UniProt P15823); assay: DRUGMATRIX: Alpha-1B adrenergic receptor radioligand binding (ligand: prazosin); type: cell membranes, Wistar, Liver, Membrane; conditions: Not Active = under 50% inhibition at 10 µM
T2 sequence (P15823 whole entry): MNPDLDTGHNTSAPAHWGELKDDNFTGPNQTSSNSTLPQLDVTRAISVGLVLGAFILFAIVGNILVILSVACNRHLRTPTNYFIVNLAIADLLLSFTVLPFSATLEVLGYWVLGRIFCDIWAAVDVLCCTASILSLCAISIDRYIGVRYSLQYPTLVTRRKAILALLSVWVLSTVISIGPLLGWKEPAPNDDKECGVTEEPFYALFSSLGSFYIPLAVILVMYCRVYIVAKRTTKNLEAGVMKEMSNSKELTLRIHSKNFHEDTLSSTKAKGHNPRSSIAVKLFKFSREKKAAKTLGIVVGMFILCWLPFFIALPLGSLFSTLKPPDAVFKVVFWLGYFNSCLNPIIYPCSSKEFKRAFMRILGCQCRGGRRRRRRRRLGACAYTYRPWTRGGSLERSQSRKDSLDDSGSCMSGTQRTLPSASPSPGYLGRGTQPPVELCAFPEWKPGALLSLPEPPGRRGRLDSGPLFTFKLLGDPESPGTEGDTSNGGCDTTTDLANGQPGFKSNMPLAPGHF

Compound | IC50
C[C@](N)(Cc1ccc(O)cc1)C(=O)O [METYROSINE] | Not Active
CCC[C@@H]1C[C@@H](C(=O)N[C@@H]([C@H]2O[C@H](SC)[C@H](O)[C@@H](O)[C@H]2O)[C@@H](C)O)N(C)C1 [LINCOMYCIN] | Not Active

biological target: 5-hydroxytryptamine receptor 6 (Homo sapiens, UniProt P50406); type: cell membranes, HeLa, Membrane; conditions: hela; note: in other assays of this panel Not Active means under 50% inhibition at 10 µM
Sequence (P50406 whole entry): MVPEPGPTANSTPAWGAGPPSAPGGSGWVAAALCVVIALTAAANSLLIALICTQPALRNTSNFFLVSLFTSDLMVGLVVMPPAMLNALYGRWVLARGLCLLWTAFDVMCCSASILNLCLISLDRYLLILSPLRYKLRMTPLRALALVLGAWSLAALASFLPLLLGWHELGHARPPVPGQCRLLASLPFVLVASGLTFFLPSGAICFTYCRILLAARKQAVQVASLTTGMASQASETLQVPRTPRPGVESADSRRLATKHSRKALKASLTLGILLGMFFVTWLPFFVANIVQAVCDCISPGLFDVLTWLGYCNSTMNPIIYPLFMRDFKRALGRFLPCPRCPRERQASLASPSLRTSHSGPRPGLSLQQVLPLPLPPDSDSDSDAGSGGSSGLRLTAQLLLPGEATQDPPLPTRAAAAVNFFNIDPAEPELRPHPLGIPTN

Compound | IC50
C[C@](N)(Cc1ccc(O)cc1)C(=O)O [METYROSINE] | Not Active
CCC[C@@H]1C[C@@H](C(=O)N[C@@H]([C@H]2O[C@H](SC)[C@H](O)[C@@H](O)[C@H]2O)[C@@H](C)O)N(C)C1 [LINCOMYCIN] | Not Active

biological target: Mu-type opioid receptor (Homo sapiens, UniProt P35372); assay: DRUGMATRIX: Opiate mu (OP3, MOP) radioligand binding (ligand: [3H] Diprenorphine); type: cell membranes, CHO-K1, Membrane; conditions: cho-k1; Not Active = under 50% inhibition at 10 µM
Sequence (P35372 whole entry): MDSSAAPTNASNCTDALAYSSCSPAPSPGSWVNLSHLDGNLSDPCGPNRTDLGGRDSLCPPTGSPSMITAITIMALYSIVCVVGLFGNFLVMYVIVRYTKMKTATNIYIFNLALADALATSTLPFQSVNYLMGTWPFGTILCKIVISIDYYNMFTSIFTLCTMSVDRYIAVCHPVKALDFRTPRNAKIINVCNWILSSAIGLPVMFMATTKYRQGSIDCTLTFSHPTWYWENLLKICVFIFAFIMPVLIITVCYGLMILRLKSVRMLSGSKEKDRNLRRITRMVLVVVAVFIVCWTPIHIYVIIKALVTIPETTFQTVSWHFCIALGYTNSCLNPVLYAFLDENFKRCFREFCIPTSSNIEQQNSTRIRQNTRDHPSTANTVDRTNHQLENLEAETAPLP

Compound | IC50
C[C@](N)(Cc1ccc(O)cc1)C(=O)O [METYROSINE] | Not Active
CCC[C@@H]1C[C@@H](C(=O)N[C@@H]([C@H]2O[C@H](SC)[C@H](O)[C@@H](O)[C@H]2O)[C@@H](C)O)N(C)C1 [LINCOMYCIN] | Not Active

biological target: Kappa-type opioid receptor (Homo sapiens, UniProt P41145); assay: DRUGMATRIX: Opiate kappa (OP2, KOP) radioligand binding (ligand: [3H] Diprenorphine); type: cell membranes, HEK293, Membrane; conditions: hek293; Not Active = under 50% inhibition at 10 µM
Sequence (P41145 whole entry): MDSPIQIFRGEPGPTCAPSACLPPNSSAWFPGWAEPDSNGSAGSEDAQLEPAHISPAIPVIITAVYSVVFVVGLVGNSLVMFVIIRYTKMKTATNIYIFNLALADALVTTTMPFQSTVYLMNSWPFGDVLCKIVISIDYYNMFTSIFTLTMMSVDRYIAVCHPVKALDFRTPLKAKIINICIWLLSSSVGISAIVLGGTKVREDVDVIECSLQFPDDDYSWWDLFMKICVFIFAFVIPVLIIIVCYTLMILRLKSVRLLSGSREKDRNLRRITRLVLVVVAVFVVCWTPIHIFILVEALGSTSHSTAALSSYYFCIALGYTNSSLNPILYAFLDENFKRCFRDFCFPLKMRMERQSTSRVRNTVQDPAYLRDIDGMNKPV

Compound | IC50
C[C@](N)(Cc1ccc(O)cc1)C(=O)O [METYROSINE] | Not Active
CCC[C@@H]1C[C@@H](C(=O)N[C@@H]([C@H]2O[C@H](SC)[C@H](O)[C@@H](O)[C@H]2O)[C@@H](C)O)N(C)C1 [LINCOMYCIN] | Not Active

biological target: Beta-1 adrenergic receptor (Homo sapiens, UniProt P08588); assay: DRUGMATRIX: Adrenergic beta1 radioligand binding (ligand: [125I] Cyanopindolol); type: cell membranes, CHO-K1, Membrane; conditions: cho-k1; Not Active = under 50% inhibition at 10 µM
Sequence (P08588 whole entry): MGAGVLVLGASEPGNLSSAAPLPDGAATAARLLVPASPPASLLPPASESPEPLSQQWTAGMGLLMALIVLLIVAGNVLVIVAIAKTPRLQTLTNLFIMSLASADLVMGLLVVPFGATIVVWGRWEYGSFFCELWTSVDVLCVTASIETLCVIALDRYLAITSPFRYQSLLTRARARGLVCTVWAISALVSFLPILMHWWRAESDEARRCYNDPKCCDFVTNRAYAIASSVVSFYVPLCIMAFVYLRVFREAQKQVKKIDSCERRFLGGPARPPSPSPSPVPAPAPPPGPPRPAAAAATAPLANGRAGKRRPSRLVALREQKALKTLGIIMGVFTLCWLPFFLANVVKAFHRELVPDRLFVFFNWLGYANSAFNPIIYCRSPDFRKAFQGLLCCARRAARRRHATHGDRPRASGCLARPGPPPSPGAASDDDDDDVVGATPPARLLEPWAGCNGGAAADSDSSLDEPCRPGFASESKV

Compound | IC50
C[C@](N)(Cc1ccc(O)cc1)C(=O)O [METYROSINE] | Not Active
CCC[C@@H]1C[C@@H](C(=O)N[C@@H]([C@H]2O[C@H](SC)[C@H](O)[C@@H](O)[C@H]2O)[C@@H](C)O)N(C)C1 [LINCOMYCIN] | Not Active

test system: not listed separately; assay: DRUGMATRIX: Calcium Channel Type L, Benzothiazepine radioligand binding (ligand: [3H] Diltiazem); type: cell membranes, Rattus norvegicus, Wistar, Brain, Membrane; conditions: Not Active = under 50% inhibition at 10 µM

Compound | IC50 | Ki
C[C@](N)(Cc1ccc(O)cc1)C(=O)O [METYROSINE] | Not Active | Not Active
CCC[C@@H]1C[C@@H](C(=O)N[C@@H]([C@H]2O[C@H](SC)[C@H](O)[C@@H](O)[C@H]2O)[C@@H](C)O)N(C)C1 [LINCOMYCIN] | Not Active | Not Active

biological target: T3, Neuropeptide Y receptor type 2 (Homo sapiens, UniProt P49146); type: cell membranes, Membrane; conditions: kan-ts; note: in other assays of this panel Not Active means under 50% inhibition at 10 µM
T3 sequence (P49146 whole entry): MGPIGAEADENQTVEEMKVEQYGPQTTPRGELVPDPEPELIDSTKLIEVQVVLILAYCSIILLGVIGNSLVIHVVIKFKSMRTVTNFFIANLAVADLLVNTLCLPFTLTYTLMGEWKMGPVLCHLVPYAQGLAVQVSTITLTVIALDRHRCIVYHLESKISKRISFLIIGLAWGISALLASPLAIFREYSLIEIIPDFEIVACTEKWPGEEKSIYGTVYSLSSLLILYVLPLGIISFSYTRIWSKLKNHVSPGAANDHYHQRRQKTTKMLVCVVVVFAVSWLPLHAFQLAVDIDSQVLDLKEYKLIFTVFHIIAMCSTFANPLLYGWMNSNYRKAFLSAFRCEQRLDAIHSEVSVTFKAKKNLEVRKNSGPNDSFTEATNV

Compound | IC50
C[C@](N)(Cc1ccc(O)cc1)C(=O)O [METYROSINE] | Not Active
CCC[C@@H]1C[C@@H](C(=O)N[C@@H]([C@H]2O[C@H](SC)[C@H](O)[C@@H](O)[C@H]2O)[C@@H](C)O)N(C)C1 [LINCOMYCIN] | Not Active

test system: not listed separately; assay: DRUGMATRIX: Nicotinic Acetylcholine radioligand binding (ligand: [125I] Epibatidine); type: cell membranes, Membrane; conditions: imr-32; Not Active = under 50% inhibition at 10 µM

Compound | IC50 | Ki
C[C@](N)(Cc1ccc(O)cc1)C(=O)O [METYROSINE] | Not Active | Not Active
CCC[C@@H]1C[C@@H](C(=O)N[C@@H]([C@H]2O[C@H](SC)[C@H](O)[C@@H](O)[C@H]2O)[C@@H](C)O)N(C)C1 [LINCOMYCIN] | Not Active | Not Active

test system: not listed separately; assay: DRUGMATRIX: Calcium Channel Type L, Phenylalkylamine radioligand binding (ligand: [3H] (-)-Desmethoxyverapamil (D-888)); type: cell membranes, Rattus norvegicus, Wistar, Brain, Membrane; conditions: Not Active = under 50% inhibition at 10 µM

Compound | IC50 | Ki
C[C@](N)(Cc1ccc(O)cc1)C(=O)O [METYROSINE] | Not Active | Not Active
CCC[C@@H]1C[C@@H](C(=O)N[C@@H]([C@H]2O[C@H](SC)[C@H](O)[C@@H](O)[C@H]2O)[C@@H](C)O)N(C)C1 [LINCOMYCIN] | Not Active | Not Active

test system: not listed separately; assay: DRUGMATRIX: ATPase, Na+/K+ enzyme inhibition (substrate: ATP); type: tissue-based, Sus scrofa, Heart; conditions: Not Active = under 50% inhibition at 10 µM

Compound | IC50 | Ki
C[C@](N)(Cc1ccc(O)cc1)C(=O)O [METYROSINE] | Not Active | Not Active
CCC[C@@H]1C[C@@H](C(=O)N[C@@H]([C@H]2O[C@H](SC)[C@H](O)[C@@H](O)[C@H]2O)[C@@H](C)O)N(C)C1 [LINCOMYCIN] | Not Active | Not Active

biological target: T4, 5-hydroxytryptamine receptor 2C (Homo sapiens, UniProt P28335); assay: DRUGMATRIX: Serotonin (5-Hydroxytryptamine) 5-HT2C radioligand binding (ligand: [3H] Mesulergine); type: cell membranes, CHO-K1, Membrane; conditions: cho-k1; Not Active = under 50% inhibition at 10 µM
T4 sequence (P28335 whole entry): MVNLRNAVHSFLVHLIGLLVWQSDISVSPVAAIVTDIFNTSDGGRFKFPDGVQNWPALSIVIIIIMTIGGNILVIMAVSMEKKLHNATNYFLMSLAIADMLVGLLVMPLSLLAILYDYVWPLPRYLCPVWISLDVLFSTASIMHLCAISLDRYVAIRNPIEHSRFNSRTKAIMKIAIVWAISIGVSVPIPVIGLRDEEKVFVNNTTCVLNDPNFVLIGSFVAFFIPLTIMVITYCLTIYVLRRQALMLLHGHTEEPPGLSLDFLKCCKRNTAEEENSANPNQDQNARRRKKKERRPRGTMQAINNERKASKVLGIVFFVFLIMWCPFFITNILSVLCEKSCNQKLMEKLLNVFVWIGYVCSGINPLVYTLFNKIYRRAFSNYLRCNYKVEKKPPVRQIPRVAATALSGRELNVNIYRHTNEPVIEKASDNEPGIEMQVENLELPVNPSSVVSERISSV

Compound | IC50
C[C@](N)(Cc1ccc(O)cc1)C(=O)O [METYROSINE] | Not Active
CCC[C@@H]1C[C@@H](C(=O)N[C@@H]([C@H]2O[C@H](SC)[C@H](O)[C@@H](O)[C@H]2O)[C@@H](C)O)N(C)C1 [LINCOMYCIN] | Not Active

biological target: Sigma non-opioid intracellular receptor 1 (Homo sapiens, UniProt Q99720); assay: DRUGMATRIX: Sigma1 radioligand binding (ligand: [3H] Haloperidol); type: cell membranes, Jurkat, Membrane; conditions: jurkat; Not Active = under 50% inhibition at 10 µM
Sequence (Q99720 whole entry): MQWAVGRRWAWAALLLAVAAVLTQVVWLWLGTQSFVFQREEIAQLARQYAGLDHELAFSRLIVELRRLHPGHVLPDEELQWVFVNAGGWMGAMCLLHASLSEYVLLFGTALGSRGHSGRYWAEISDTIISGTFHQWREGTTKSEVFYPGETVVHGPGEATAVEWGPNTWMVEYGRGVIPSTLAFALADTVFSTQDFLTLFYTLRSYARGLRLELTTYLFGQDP

Compound | IC50
C[C@](N)(Cc1ccc(O)cc1)C(=O)O [METYROSINE] | Not Active
CCC[C@@H]1C[C@@H](C(=O)N[C@@H]([C@H]2O[C@H](SC)[C@H](O)[C@@H](O)[C@H]2O)[C@@H](C)O)N(C)C1 [LINCOMYCIN] | Not Active

test system: not listed separately; assay: DRUGMATRIX: Glutamate, Kainate radioligand binding (ligand: [3H] Kainic acid); type: cell membranes, Rattus norvegicus, Wistar, Brain, Membrane; conditions: Not Active = under 50% inhibition at 10 µM

Compound | IC50 | Ki
C[C@](N)(Cc1ccc(O)cc1)C(=O)O [METYROSINE] | Not Active | Not Active
CCC[C@@H]1C[C@@H](C(=O)N[C@@H]([C@H]2O[C@H](SC)[C@H](O)[C@@H](O)[C@H]2O)[C@@H](C)O)N(C)C1 [LINCOMYCIN] | Not Active | Not Active
